Laboratory results: patent EP3705574A1, “SPLIT LUCIFERASE, AND HIGHLY SENSITIVE VITAMIN D RECEPTOR LIGAND DETECTION METHOD USING SAME” (Public University Corporation Toyama Prefectural University, priority 2017, dated 2019)

How the values were obtained:
[1] = target: T1, LucN-NHPMLMNLLKDN-(GGGGS)×3-LBD-LucC biosensor (split firefly luciferase, LXXLL sequence, hVDR LBD 121-427 aa) (Homo sapiens, UniProt P11473); experiment: Luciferase light emission in COS-7 cells expressing single molecular type biosensor; format: cell-based; conditions: 0-1000 nM added, relative light intensity after 90 minutes
T1 construct: expressed in transfected cells; host or cells: COS-7
T1 sequence (P11473 121-427): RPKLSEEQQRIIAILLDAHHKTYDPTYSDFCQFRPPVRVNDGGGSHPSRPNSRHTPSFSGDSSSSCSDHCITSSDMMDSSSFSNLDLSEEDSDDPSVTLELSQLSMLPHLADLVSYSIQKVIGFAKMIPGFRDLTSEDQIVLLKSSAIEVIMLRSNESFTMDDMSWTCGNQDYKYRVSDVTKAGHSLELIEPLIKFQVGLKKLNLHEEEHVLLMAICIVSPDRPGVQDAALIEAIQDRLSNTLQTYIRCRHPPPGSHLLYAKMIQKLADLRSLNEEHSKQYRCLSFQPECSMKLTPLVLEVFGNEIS

[2] = tested on: double molecular type N29+N31 biosensor (6×His LBD(121-427 aa)-SmBiT + 6×His LgBiT-NHPMLMNLLKDN)
Description: Several of the obtained E.coli colony were selected, inoculated into 2 mL of LB liquid culture medium (containing 100 µg/mL of ampicillin), and shaking culture was performed at 37°C and 200 rpm for 12 hours. 2 mL of E.coli solution was succeeded in 500 mL of LB liquid culture medium (containing 100 µg/mL of ampicillin) and cultivated at 37°C to OD600=0.4, and then 1 mM isopropyl-1-thio-β-D-galactopyranoside [IPTG (NACALAI TESQUE, INC.) was added and cultivated at 15°C for 3 hours to express proteins. After cultivation, centrifugal separation was performed at 4°C, 5000×g for 10 minutes to collect bacterial cells. Bacterial bodies were suspended in the solution containing 25 mM Tris-HCl, pH 7.4, 10 mM DTT, and protease cocktails of inhibitor (NACALAI TESQUE, Inc.) and then ultrasonic crushing was performed in ice for 15 sec×7 times. Thereafter, centrifugal separation was performed at 4°C, 20,000×g for 30 minutes, and supernatant was collected to obtain biosensor protein solutions N29, N30, N31 and N32.
Thereafter, 10 µl of light emission substrate solution (Nano-Glo Live Cell Assay System, Promega) was added and measured. Ethanol (EtOH) brought in, which is used as a solvent for VDR ligand, was at a final concentration of 1%. Microplate reader Infinite 200 Pro (TECAN) was used as an instrument for measuring light emission.
After plating double molecular type N29+N31 to 96 well plate, 0-50 nM of 25(OH)D3 was added and incubated for 10 minutes at room temperature.
After plating double molecular type N29+N31 to 96 well plate, 0-10 nM of 25(OH)D3 was added and incubated for 10 minutes at room temperature.
After plating double molecular type N29+N31 to 96 well plate, 0-10000 nM calcitroic acid was added and incubated for 10 minutes at room temperature.

Row | concentration reaching maximal light emission [1] | Detection limit ([2]; 0-10 nM 25(OH)D3, 10 minutes after light emission substrate solution, in vitro) | concentration reaching maximal increase of light emission ([2]; 0-50 nM 25(OH)D3, in vitro) | relative change of light emission ([2]; nanoluciferase biosensor protein, 10 min, 1 pM) | concentration required for increasing light emission ([2]; 0-10000 nM calcitroic acid, 10 minutes after light emission substrate solution, in vitro) | VDR affinity relative to 1α,25(OH)2D3 ([2]; stated with the N29+N31 biosensor evaluation) | Compound
1 | 1000 nM | 1 pM | around 50 nM | about 1.5 fold |  |  | C=C1CC[C@H](O)C/C1=C/C=C1\CCC[C@]2(C)[C@@H]([C@H](C)CCCC(C)(C)O)CC[C@@H]12 [25(OH)D3, 25 hydroxyvitamin D3]
2 |  |  |  |  | ≥ 10 nM | 1/1000 | C=C1/C(=C\C=C2/CCC[C@]3(C)[C@@H]([C@H](C)CC(=O)O)CC[C@@H]23)C[C@@H](O)C[C@@H]1O [calcitroic acid]
